# Experimental data published in ChEMBL document CHEMBL6083247, “Discovery of sulfone containing metallo-β-lactamase inhibitors with reduced bacterial cell efflux and histamine release issues” (Bioorg Med Chem Lett, 2024).
# pIC50: −log10 of the molar value.
# Legend:
# [1] = Volume of distribution at steady state in rat at 1 mg/kg, iv; assay type: ADME, organism-based; settings: in vivo, read-out: Vdss
# [2] = AUC in rat at 1 mg/kg, iv; assay type: ADME, organism-based; settings: in vivo
# [3] = Clearance in rat at 1 mg/kg, iv; assay type: ADME, organism-based; settings: in vivo
# [4] = Cmax in rat at 1 mg/kg, iv; assay type: ADME, organism-based; settings: in vivo
# [5] = MRT in rat at 1 mg/kg, iv; assay type: ADME, organism-based; settings: in vivo
# [6] = Unbound fraction in rat plasma at 1 mg/kg, iv; assay type: ADME, organism-based
# [7] = AUC in rhesus monkey at 1 mg/kg, iv; assay type: ADME, organism-based, Macaca mulatta; settings: in vivo
# [8] = Clearance in rhesus monkey at 1 mg/kg, iv; assay type: ADME, organism-based, Macaca mulatta; settings: in vivo
# [9] = Volume of distribution at steady state in rhesus monkey at 1 mg/kg, iv; assay type: ADME, organism-based, Macaca mulatta; settings: in vivo, read-out: Vdss
# [10] = Cmax in rhesus monkey at 1 mg/kg, iv; assay type: ADME, organism-based, Macaca mulatta; settings: in vivo
# [11] = MRT in rhesus monkey at 1 mg/kg, iv; assay type: ADME, organism-based, Macaca mulatta; settings: in vivo
# [12] = Unbound fraction in rhesus monkey plasma at 1 mg/kg, iv; assay type: ADME, organism-based, Macaca mulatta
# [13] = Inhibition of Metallo-beta-lactamase IMP-1 (unknown origin); set-up: species or system Bacteria
# [14] = Inhibition of Metallo-beta-lactamase VIM-1 (unknown origin); set-up: species or system Bacteria
# [15] = Inhibition of Metallo-beta-lactamase VIM-2 (unknown origin); set-up: species or system Bacteria
# Escherichia coli [16] = experiment: Antibacterial activity against NDM-1 expressing Escherichia coli CLB30016 assessed as inhibition of bacterial growth in presence of IMI by absorbance based assay; assay type: functional
# Serratia marcescens = experiment: Antibacterial activity against IMP-1 expressing Serratia marcescens CL5741 assessed as inhibition of bacterial growth in presence of IMI by absorbance based assay; assay type: functional
# Klebsiella pneumoniae = experiment: Antibacterial activity against VIM-1 expressing Klebsiella pneumoniae IHMA599644 assessed as inhibition of bacterial growth in presence of IMI by absorbance based assay; assay type: functional
# Pseudomonas aeruginosa = experiment: Antibacterial activity against wildtype isogenic efflux/IMP-1 expressing Pseudomonas aeruginosa MB9798 assessed as inhibition of bacterial growth in presence of IMI by absorbance based assay; assay type: functional
# [17] = Efflux ratio of MITC95 for antibacterial activity against wildtype isogenic efflux/IMP-1 expressing Pseudomonas aeruginosa MB9798 assessed as inhibition of bacterial growth in presence of IMI to MITC95 for antibacterial activity against mutant isogenic efflux/IMP-1 expressing Pseudomonas aeruginosa MB9799 assessed as inhibition of bacterial growth in presence of IMI; assay type: functional
# [18] = Cmax in rat at 100 mg/kg, iv; assay type: ADME, organism-based; settings: in vivo
# [19] = Toxicity in cardiovascular rat model assessed as increase in histamine release in plasma at 100 mg/kg, iv; assay type: organism-based; settings: in vivo
# [20] = Toxicity in rat mast cells assessed as degranulation by measuring histamine release at 900 microM; assay type: cell-based; settings: mast cell
# [21] = Toxicity in cardiovascular rat model assessed as decrease in blood pressure at 30 mg/kg,iv for 20 mins and measured after 20 mins of iv infusion with 100 mg/kg; assay type: organism-based; settings: in vivo, 40 min
# [22] = Toxicity in cardiovascular rat model assessed as increase in histamine release in plasma at 30 mg/kg,iv for 20 mins and measured after 20 mins of iv infusion with 100 mg/kg; assay type: organism-based; settings: in vivo, 40 min
# [23] = Toxicity in rhesus monkey assessed as adverse effects at 1 mg/kg, iv measured after 24 hrs; assay type: organism-based, Macaca mulatta; settings: in vivo
# [24] = Cmax in rhesus monkey at 1 mg/kg, iv measured after 24 hrs; assay type: ADME, organism-based, Macaca mulatta; settings: in vivo
# Staphylococcus aureus = experiment: Antibacterial activity against wild type Staphylococcus aureus; assay type: functional, organism-based
# Escherichia coli [25] = experiment: Antibacterial activity against efflux mutant Escherichia coli; assay type: functional, organism-based
# [26] = Hemolytic activity in sheep red blood cells assessed as hemolysis; assay type: toxicity, cell-based, Ovis aries, Erythrocyte
smiles,measurement,setting,value
NCCS(=O)(=O)c1ccc(-c2cccc3sc(N)nc23)c(-c2nn[nH]n2)c1S(N)(=O)=O,Vd,[1],0.46 L/kg
same,AUC,[2],1.15 µM·h
same,clearance,[3],32.1 mL/min/kg
same,Cmax,[4],5.8 µM
same,MRT,[5],0.23 h
same,fraction unbound,[6],0.37
same,AUC,[7],10.2 µM·h
same,clearance,[8],3.6 mL/min/kg
same,Vd,[9],0.39 L/kg
same,Cmax,[10],18 µM
same,MRT,[11],1.81 h
same,fraction unbound,[12],0.23
same,pIC50,[13],9.64
same,pIC50,[14],9.51
same,pIC50,[15],9.00
same,MITC95,Escherichia coli [16],0.78 µM
same,MITC95,Serratia marcescens,1.56 µM
same,MITC95,Klebsiella pneumoniae,3.13 µM
same,MITC95,Pseudomonas aeruginosa,0.78 µM
same,Ratio,[17],~1
same,Cmax,[18],569 µM
same,Activity,[19],Non-toxic
same,Activity,[20],Non-toxic
same,Activity,[21],Toxic
same,Activity,[22],Non-toxic
same,Activity,[23],Non-toxic
same,Cmax,[24],18 µM
same,pIC50,Staphylococcus aureus,< 3.70
same,pIC50,Escherichia coli [25],< 3.70
same,pIC50,[26],< 3.70
